{"source": "patent US20100298141A1", "about": "“SUBSTITUTED PYRIDINE N-OXIDE HERBICIDES” (E. I. DU PONT DE NEMOURS AND COMPANY, priority 2007, published 2010)", "key": {"[1]": {"system": "common mallow", "assay": "Test F preemergence test", "format": "in vivo, Malva sylvestris", "details": "scale 0 to 100", "in_short": "(§1)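 Preemergence application to planted seeds, or postemergence to sugarcane plants; compound in non-phytotoxic solvent mix plus surfactant. Greenhouse, 14-21 days. Visual rating vs. controls.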"}, "[2]": {"system": "barnyardgrass", "assay": "Test A pre-/postemergence greenhouse test", "format": "in vivo, Echinochloa crus-galli", "details": "for Barnyardgrass plant response rating: 0 to 100 scale", "in_short": "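Greenhouse herbicide screen, pre- and postemergence in parallel. Soil: loam plus sand. Formulation: non-phytotoxic solvent mix with surfactant. Postemergence stage: one to two leaves, 2–10 cm height. Evaluation: visual injury, compared with untreated controls, about 10 days after treatment.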"}, "[3]": {"system": "barnyardgrass", "assay": "Test F preemergence test", "format": "in vivo, Echinochloa crus-galli", "details": "scale 0 to 100", "in_short": "as §1"}, "[4]": {"system": "mustard", "assay": "Test F preemergence test", "format": "in vivo, Brassica nigra", "details": "scale 0 to 100", "in_short": "as §1"}, "[5]": {"system": "cocklebur", "assay": "Test C pre-/postemergence test", "format": "in vivo, Xanthium strumarium", "in_short": "(§2)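 Seeds were planted and treated preemergence with test chemical in a non-phytotoxic solvent mixture containing surfactant. Postemergence applications of the same formulation went onto plants 2 to 18 cm tall (1- to 4-leaf stage). A dash marks no test result.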"}, "[6]": {"system": "broadleaf signalgrass", "assay": "Test F preemergence test", "format": "in vivo, Brachiaria platyphylla", "details": "scale 0 to 100", "in_short": "as §1"}, "[7]": {"system": "dallisgrass", "assay": "Test F preemergence test", "format": "in vivo, Paspalum dilatatum", "details": "scale 0 to 100", "in_short": "as §1"}, "[8]": {"system": "velvetleaf", "assay": "Test C pre-/postemergence test", "format": "in vivo, Abutilon theophrasti", "details": "for Velvetleaf plant response rating: preemergence, scale 0 (no effect) to 100 (complete control)", "in_short": "as §2"}, "[9]": {"system": "Virginia dayflower", "assay": "Test F preemergence test", "format": "in vivo, Commelina virginica", "details": "scale 0 to 100", "in_short": "as §1"}, "[10]": {"system": "annual bluegrass", "assay": "Test F preemergence test", "format": "in vivo, Poa annua", "details": "scale 0 to 100", "in_short": "as §1"}, "[11]": {"system": "itchgrass", "assay": "Test F preemergence test", "format": "in vivo, Rottboellia cochinchinensis", "details": "scale 0 to 100", "in_short": "as §1"}, "[12]": {"system": "kochia", "assay": "Test C pre-/postemergence test", "format": "in vivo, Kochia scoparia", "in_short": "as §2"}, "[13]": {"system": "field bindweed", "assay": "Test F preemergence test", "format": "in vivo, Convolvulus arvensis", "details": "scale 0 to 100", "in_short": "as §1"}, "[14]": {"system": "green foxtail", "assay": "Test F preemergence test", "format": "in vivo, Setaria viridis", "details": "scale 0 to 100", "in_short": "as §1"}, "[15]": {"details": "31 g ai/ha, Preemergence, scale 0 to 100"}, "[16]": {"details": "62 g ai/ha, preemergence, scale 0 (no effect) to 100 (complete control)"}, "[17]": {"details": "preemergence, 125 g ai/ha, scale 0 (no effect) to 100 (complete control)"}}}
{"smiles": "Cn1nc(C(F)(F)F)c(C[S+]([O-])c2cccc[n+]2[O-])c1Cl", "note": "(stereo not drawn) [Compound 8]", "values": [{"measurement": "Mallow plant response rating", "setting": "[1]; 62 g ai/ha, Preemergence", "value": 60}, {"measurement": "Mallow plant response rating", "setting": "[1]; 125 g ai/ha, preemergence", "value": 80}, {"measurement": "Plant response rating, Mallow", "setting": "[1]; Preemergence, 16 g ai/ha", "value": 30}, {"measurement": "Plant response rating, Mallow", "setting": "[1]; Preemergence, 31 g ai/ha", "value": 30}, {"measurement": "Barnyardgrass plant response rating", "setting": "[2]; Postemergence, 125 g ai/ha, 0 is no effect, 100 is complete control", "value": 80}, {"measurement": "Barnyardgrass plant response rating", "setting": "[2]; Postemergence, 500 g ai/ha, 0 is no effect, 100 is complete control", "value": 80}, {"measurement": "Barnyardgrass plant response rating", "setting": "[2]; Preemergence, 125 g ai/ha, 0 no effect, 100 complete control", "value": 90}, {"measurement": "Plant response rating, Barnyardgrass", "setting": "[2]; Preemergence, 500 g ai/ha, 0 to 100 scale where 0 is no effect and 100 is complete control", "value": 100}, {"measurement": "Barnyardgrass plant response rating", "setting": "[3]; 62 g ai/ha, Preemergence", "value": 95}, {"measurement": "Barnyardgrass plant response rating", "setting": "[3]; 125 g ai/ha, preemergence", "value": 100}, {"measurement": "Plant response rating, Barnyardgrass", "setting": "[3]; Preemergence, 16 g ai/ha", "value": 70}, {"measurement": "Plant response rating, Barnyardgrass", "setting": "[3]; Preemergence, 31 g ai/ha", "value": 80}, {"measurement": "Black Mustard plant response rating", "setting": "[4]; 62 g ai/ha, Preemergence", "value": 80}, {"measurement": "Black Mustard plant response rating", "setting": "[4]; 125 g ai/ha, preemergence", "value": 95}, {"measurement": "Plant response rating, Black Mustard", "setting": "[4]; Preemergence, 16 g ai/ha", "value": 0}, {"measurement": "Plant response rating, Black Mustard", "setting": "[4]; Preemergence, 31 g ai/ha", "value": 70}, {"measurement": "Cocklebur plant response rating", "setting": "[5]; [15]", "value": 0}, {"measurement": "Cocklebur plant response rating", "setting": "[5]; [16]", "value": 0}, {"measurement": "Plant response rating (0 to 100), Cocklebur", "setting": "[5]; Preemergence, 250 g ai/ha", "value": 5}, {"measurement": "Cocklebur plant response rating", "setting": "[5]; [17]", "value": 0}, {"measurement": "Signalgrass plant response rating", "setting": "[6]; 62 g ai/ha, Preemergence", "value": 75}, {"measurement": "Signalgrass plant response rating", "setting": "[6]; 125 g ai/ha, preemergence", "value": 85}, {"measurement": "Plant response rating, Signalgrass", "setting": "[6]; Preemergence, 31 g ai/ha", "value": 65}, {"measurement": "Dallisgrass plant response rating", "setting": "[7]; 62 g ai/ha, Preemergence", "value": 80}, {"measurement": "Dallisgrass plant response rating", "setting": "[7]; 125 g ai/ha, preemergence", "value": 98}, {"measurement": "Plant response rating, Dallisgrass", "setting": "[7]; Preemergence, 16 g ai/ha", "value": 0}, {"measurement": "Plant response rating, Dallisgrass", "setting": "[7]; Preemergence, 31 g ai/ha", "value": 20}, {"measurement": "Velvetleaf plant response rating", "setting": "[8]; 62 g ai/ha", "value": 45}, {"measurement": "Plant response rating (0 to 100), Velvetleaf", "setting": "[8]; Preemergence, 250 g ai/ha", "value": 100}, {"measurement": "Velvetleaf plant response rating", "setting": "[8]; 125 g ai/ha", "value": 98}, {"measurement": "Dayflower plant response rating", "setting": "[9]; 62 g ai/ha, Preemergence", "value": 0}, {"measurement": "Dayflower plant response rating", "setting": "[9]; 125 g ai/ha, preemergence", "value": 75}, {"measurement": "Plant response rating, Dayflower", "setting": "[9]; Preemergence, 16 g ai/ha", "value": 0}, {"measurement": "Plant response rating, Dayflower", "setting": "[9]; Preemergence, 31 g ai/ha", "value": 0}, {"measurement": "Bluegrass plant response rating", "setting": "[10]; 62 g ai/ha, Preemergence", "value": 0}, {"measurement": "Bluegrass plant response rating", "setting": "[10]; 125 g ai/ha, preemergence", "value": 70}, {"measurement": "Plant response rating, Bluegrass", "setting": "[10]; Preemergence, 16 g ai/ha", "value": 0}, {"measurement": "Plant response rating, Bluegrass", "setting": "[10]; Preemergence, 31 g ai/ha", "value": 0}, {"measurement": "Itchgrass plant response rating", "setting": "[11]; 62 g ai/ha, Preemergence", "value": 80}, {"measurement": "Itchgrass plant response rating", "setting": "[11]; 125 g ai/ha, preemergence", "value": 95}, {"measurement": "Plant response rating, Itchgrass", "setting": "[11]; Preemergence, 16 g ai/ha", "value": 0}, {"measurement": "Plant response rating, Itchgrass", "setting": "[11]; Preemergence, 31 g ai/ha", "value": 15}, {"measurement": "Kochia plant response rating", "setting": "[12]; [15]", "value": 40}, {"measurement": "Kochia plant response rating", "setting": "[12]; [16]", "value": 45}, {"measurement": "Plant response rating (0 to 100), Kochia", "setting": "[12]; Preemergence, 250 g ai/ha", "value": 100}, {"measurement": "Kochia plant response rating", "setting": "[12]; [17]", "value": 100}, {"measurement": "Field Bindweed plant response rating", "setting": "[13]; 62 g ai/ha, Preemergence", "value": 15}, {"measurement": "Field Bindweed plant response rating", "setting": "[13]; 125 g ai/ha, preemergence", "value": 70}, {"measurement": "Plant response rating, Field Bindweed", "setting": "[13]; Preemergence, 16 g ai/ha", "value": 0}, {"measurement": "Plant response rating, Field Bindweed", "setting": "[13]; Preemergence, 31 g ai/ha", "value": 0}, {"measurement": "Foxtail, Green plant response rating", "setting": "[14]; 62 g ai/ha, Preemergence", "value": 80}, {"measurement": "Foxtail, Green plant response rating", "setting": "[14]; 125 g ai/ha, preemergence", "value": 90}, {"measurement": "Plant response rating, Foxtail, Green", "setting": "[14]; Preemergence, 16 g ai/ha", "value": 0}, {"measurement": "Plant response rating, Foxtail, Green", "setting": "[14]; Preemergence, 31 g ai/ha", "value": 70}]}
